According to PMC12333015, “Profiling the Impact of mGlu7/Elfn1 Protein Interactions on the Pharmacology of mGlu7 Allosteric Modulators” (ACS Chemical Neuroscience, 2025):

Test system: pyramidal cell to SST-IN synapses in the prefrontal cortex
Assay: Ex vivo whole-cell electrophysiology, eEPSCs recorded from SST-INs in prefrontal cortex slices
Assay type: cell-based, mouse
From the text: Shown in Figure A are representative traces of eEPSCs recorded from SST-INs in response to 5-pulse stimulation with baseline in black, illustrating the characteristic facilitating nature of pyramidal cell (PYR) to SST-IN synapses.
Transgenic mice (both male and female) expressing tdTomato fluorescent protein in SST-INs were used in this study. They were generated by crossing female homozygous SST-Cre (Sst^tm2.1(cre)Zjh/J, Stock #: 013044, Jackson Laboratories) with male homozygous Ai9 mice (B6;Cg-Gt(Rosa)-26Sor^tm9(CAG‑tdTomato)Hze/J, Stock #: 007909, Jackson Laboratories). All animals were group housed with food and water available ad libitum, kept under a 12 h light/dark cycle with lights on from 6:00 AM to 6:00 PM, and were used for experiments during the light phase. All of the experimental procedures were approved by the Vanderbilt University Animal Care and Use committee and followed the guidelines set forth by the Guide for the Care and Use of Laboratory Animals. […] Whole cell recordings were made from visually identified, fluorescence-labeled SST-INs in layer V of PFC slices under the upright microscope. […] Excitatory postsynaptic currents (EPSCs) were recorded from layer V SST-INs at a holding potential of −80 mV and evoked by electrical stimulation (100 μs duration, applied every 15 s) through a concentric bipolar stimulating electrode placed around 100–150 μm from the recorded cell. The holding potential of −80 mV under voltage clamp is closed to the calculated reversal potential of Cl^– and thus the EPSCs recorded in the present studies had minimal GABAA-mediated component. Electrical stimulation applied near the recorded cell in the cortex presumably activates the local neurons preferentially. […] Data were analyzed using Clampfit 10 (Molecular Devices), Excel (Microsoft), and Prism (GraphPad Software), and presented as mean ± SEM. […]

O=C(Nc1ccc(Oc2ccc(Cl)cn2)c(Cl)c1)c1ccccn1 [VU0422288]
effect on eEPSC amplitude (10 μM VU0422288 alone, compared to baseline): no change in eEPSC amplitude | effect on eEPSCs of combination with L-AP4 (30 μM L-AP4 + 10 μM VU0422288, compared to L-AP4 alone): further depression of eEPSCs
